Results on six compounds are retold here after paper PMC5617480 (Oncotarget, 2017).

The test system of experiment [1] is HTG21 / G4-HTG21 human telomeric DNA. Briefly: CD spectroscopy. Also noted: key to Extent of change at 290―295 nm (%): “—”represents no obvious changes in the peaks. Particulars: DNA 10 μM, compound 20 μM. It is filed as binding. As for the experimental part:
We asked whether chiral platinum(II) complexes 4–6 have the ability to bind to G-quadruplex DNA. To address this, FRET assays, CD spectroscopy, G4-FID assays, and fluorescence titration analysis were performed. […] For G4-HTG21, the ^G4DC50 values of complexes 4–6 were 1.23, 1.26 and 0.99 μM, respectively; while, for G4-Pu27, the ^G4DC50 values were 1.01, 0.89, and 0.82 μM, respectively. In addition, the ^ctDNADC50/^G4DC50 ratio of the HTG21 and Pu27 G4s treated with complexes 4–6 was in the range of 50.54-90.65 and 71.56-110.67 folds, respectively. To further evaluate the binding ability of complexes 4–6 to Pu27 and HTG21G4s, CD spectroscopy and fluorescence titration analysis were performed. […] The quenching ability of complexes 4–6 to HTG21 and Pu27 G4 DNA fluorescence can be quantitatively estimated by their respective quenching constant (Kq), which was derived from the Stern-Volmer quenching equation. […] Finally, the selective binding of complexes 4–6 towards G4 DNA was analyzed by FRET-melting assays. […] In contrast, the ΔTm value for the F32T+H20M duplex DNA in the presence of complexes 4–6 was 1.18, 1.34, and 0.78 °C under the same conditions (Figure 4A). Altogether, our data indicated complexes 4–6, especially complex 6, is the best binder to G4 DNA, which caused DNA complex displaying the highest thermodynamic stability. […]
Supplementary Figure 21: CD spectra of Human Telomeric DNA (10 μM) in the absence of K+ (10 mM pH 7.35 Tris-
HCl) upon addition of compounds (20 μM). […]
Supplementary Figure 22: CD spectra of Human Telomeric G-quadruplex DNA (10 μM) in the presence of K + (TBS
buffer, containing 1% DMSO, 100 mM KCl, and 10 mM pH 7.35 Tris-HCl) upon addition of compounds (20 μM). […]

The test system of experiment [2] is F21T. Put plainly: FRET-melting assay. It is filed as binding. Particulars: F21T 1.0 μM, compound 2.0 μM. As for the experimental part:
(§1) We asked whether chiral platinum(II) complexes 4–6 have the ability to bind to G-quadruplex DNA. To address this, FRET assays, CD spectroscopy, G4-FID assays, and fluorescence titration analysis were performed. […] For G4-HTG21, the ^G4DC50 values of complexes 4–6 were 1.23, 1.26 and 0.99 μM, respectively; while, for G4-Pu27, the ^G4DC50 values were 1.01, 0.89, and 0.82 μM, respectively. In addition, the ^ctDNADC50/^G4DC50 ratio of the HTG21 and Pu27 G4s treated with complexes 4–6 was in the range of 50.54-90.65 and 71.56-110.67 folds, respectively. To further evaluate the binding ability of complexes 4–6 to Pu27 and HTG21G4s, CD spectroscopy and fluorescence titration analysis were performed. […] The quenching ability of complexes 4–6 to HTG21 and Pu27 G4 DNA fluorescence can be quantitatively estimated by their respective quenching constant (Kq), which was derived from the Stern-Volmer quenching equation. […] Finally, the selective binding of complexes 4–6 towards G4 DNA was analyzed by FRET-melting assays. […] In contrast, the ΔTm value for the F32T+H20M duplex DNA in the presence of complexes 4–6 was 1.18, 1.34, and 0.78 °C under the same conditions (Figure 4A). Altogether, our data indicated complexes 4–6, especially complex 6, is the best binder to G4 DNA, which caused DNA complex displaying the highest thermodynamic stability.
(§2) Figure 4 Complexes 4–6 induced telomeres damage and inhibited the telomerase activity through directly regulating the mRNA level of c-myc promoter (Pu27) (A) ΔTm data (°C) of 1.0 μM HTG21, Pu39 and c-myc G4s and duplex DNA (F32T+H20M) treated with complexes 1–6 at 0–2.0 μM were evaluated by […]. (B) The levels of TRF2, 53BP1, and TRF1 in BEL-7404 cells treated with complexes 4–6 at 10 μM for 24 h were examined by Western blot. (C) The whole-cell extracts were prepared and analyzed by Western blot analysis using antibodies against TRF2, 53BP1, and TRF1. The same blots were stripped and re-probed with β-actin antibody to show equal protein loading. Western blotting bands from three independent measurements were quantified with Image J. in (B). (D) The influence of complexes 4–6 (10 μM) on the telomerase activity of the BEL-7404 cells for 24 h. (E) The investigations of the expression of c-myc and hTERT in the BEL-7404 tumor cells when incubated with complexes 4–6 (10 μM) for 24 h. C-myc and hTERT protein levels in BEL-7404 cells were analyzed by western blot. (F) The whole-cell extracts were prepared and analyzed by Western blot analysis using antibodies against c-myc and hTERT. The same blots were stripped and re-probed with β-actin antibody to show equal protein loading. Western blotting bands from three independent measurements were quantified with Image J. in (E). (G) qRT-PCR analysis of the expression levels of hTERT and c-myc in the BEL-7404 cells treated with complexes 4–6 (10 μM). The BEL-7404 cells (5×10^5) were treated with complexes 4–6 (10 μM) for 24 h. The total RNA in the cells was extracted and subjected to reverse transcription, followed by PCR for c-myc, hTERT, and GAPDH (control). (H) and (I) The investigations of the role of the transfections of EGFP plasmid vector (H) and c-myc plasmid vector (I) in the BEL-7404 tumor cells when incubated with complexes 4–6 (10 μM) for 24 h. First, 2.0 μg of EGFP-carrying plasmid vector or 2.0 μg of c-myc-carrying plasmid vector was cotransfected into BEL-7404 cells using Lipofectamine 2000 (Invitrogen, Grand Island, NY, USA). Complexes 4–6 (10 μM) were then added, respectively, into medium at 6.0 h after transfection of c-myc plasmid. At another 24 h after treatment with complexes 4–6 (10 μM), these cells were imaged using Nikon TE2000 (Japan) scanning fluorescent microscope or were examined by Multimodel Plate Reader with luciferase reporter gene assay kit. […]

Experiment [3] relates to F32T+H20M duplex DNA. Briefly: FRET-melting assay. The class given is binding. Particulars: F32T+H20M duplex DNA 1.0 μM, compound 2.0 μM. The procedure: as §1, §2
In experiment [4] the test system is FPu18T. Put plainly: FRET-melting assay. The class given is binding. Particulars: FPu18T 1.0 μM, compound 2.0 μM. The procedure:
as §1, §2

The subject of experiment [5] is Pu27 (c-myc) G4. Also noted: method as in earlier work. Particulars: ref [1], cited from earlier work; for ctDNADC50/Pu27DC50: FID selectivity ratio; for Pu27DC50: FID.
Where [6] appears, read: G4-HTG21 (presence of K+), given with ↓.
The mark [7] stands for this setting: HTG21 (absence of K+), given with ↓.

Turning to cis-[PtCl2(S-(–)-FOA)] [complex 6], the “Extent of change at 250―265 nm (%)” value is listed as 56.31% in experiment [1] (setting [6]) and 73.98% in experiment [1] (setting [7]). Also, the results for the “Extent of change at 290―295 nm (%)” value in experiment [1] (setting [6]) and in experiment [1] (HTG21 (absence of K+)) were 19.43% and “—”, respectively. The shift in melting temperature (ΔTm) in experiment [2] amounted to 20.07 °C; in experiment [3], 0.78 °C; in experiment [4], 23.01 °C.

Take `O=C(NC[C@@H](O)CO)c1cnc2c3c(cccc13)-c1ccccc1C2=O.[Cl-].[Cl-].[Pt+2]` [ligand 2, R-(+)-FOA]: in experiment [5], the ctDNADC50/Pu27DC50 is given as 22.59 and the Pu27DC50 is 1.77 µM.

In the case of `O=C(NCC(O)CO)c1cnc2c3c(cccc13)-c1ccccc1C2=O.[Cl-].[Cl-].[Pt+2]` (racemic) [ligand 1, R/S-(±)-FOA], in experiment [5], the ctDNADC50/Pu27DC50 was 39.24 and the Pu27DC50 was 1.63 µM.

As for `O=C(NC[C@H](O)CO)c1cnc2c3c(cccc13)-c1ccccc1C2=O.[Cl-].[Cl-].[Pt+2]` [ligand 3, S-(–)-FOA], in experiment [5], the ctDNADC50/Pu27DC50 is recorded as 62.81 and the Pu27DC50 is 1.43 µM.

Take cis-[PtCl2(R/S-(±)-FOA)] [complex 4]: the “Extent of change at 250―265 nm (%)” value in experiment [1] (setting [6]) stood at 50.08%; in experiment [1] (setting [7]), 73.35%. The “Extent of change at 290―295 nm (%)” value is 16.44% in experiment [1] (setting [6]) and “—” in experiment [1] (HTG21 (absence of K+)). The shift in melting temperature (ΔTm) worked out at 13.19 °C in experiment [2], 1.18 °C in experiment [3] and 19.15 °C in experiment [4].

As to cis-[PtCl2(R-(+)-FOA)] [complex 5], the “Extent of change at 250―265 nm (%)” value was 52.31% in experiment [1] (setting [6]) and 62.38% in experiment [1] (setting [7]). Also, the “Extent of change at 290―295 nm (%)” value in experiment [1] (setting [6]) is listed as 9.76%; in experiment [1] (HTG21 (absence of K+)), “—”. Besides, the values for the shift in melting temperature (ΔTm) in experiment [2], in experiment [3] and in experiment [4] were 12.95 °C, 1.34 °C and 16.66 °C, respectively.

Broadly, the ΔTm is the shift of the melting midpoint relative to a reference.
